Measured values: patent US12258574B2, “Methods and compositions for transducing lymphocytes and regulating the activity thereof” (Exuma Biotech Corp., priority 2016, dated 2025)

Experiments:
[1] = 1.5 hours post ip administration, n=3, relative to PBS-treated mice
Text: Phenol red is a pH indicator which undergoes a pH-dependent color transition. […] A solution of phenol red has a yellow color at a pH of 6.4 or below, an orange color around pH 7.0, a red color around pH 7.4, and a purple color above pH 7.8.
The CHO xenograft tumor was excised from each mouse. The xenograft tumors were split into two halves with a scalpel and placed on a petri dish. The tumor tissue halves were then cut/sliced repeatedly using the scalpel. Water or 0.05% phenol red solution (50 mg phenol red/100 ml water) was added dropwise to each tumor half, respectively. The color was noted and images were taken of the treated tumor xenografts and of the phenol red solution remaining on the petri plate once the tumor xenograft samples were removed.

[2] = 50-milliliter bolus; cited from earlier work
[3] = tested on: cathepsin B, L, S, K, V, and D; details: 1 ml/mouse 1 M ip, 30 min post administration, n=3, vs PBS
Text: Fortunately, the relative protease activity of cathepsin is higher at lower pH and lower at higher pH. Therefore, the measurement of intratumoral cathepsin activity can serve as a surrogate measure of the pH of the tumor microenvironment. To measure in vivo activities of cathepsin B, L, S, K, V, and D, the near-infrared ProSense 750 FAST probe (PerkinElmer) was used.
Mice were handled in accordance with Institutional Animal Care and Use Committee approved protocols. Subcutaneous (sc) Chinese Hamster Ovary (CHO) tumor xenografts were established in the hind flank of 12-14 week old female B-NSG mice (NOD-PrkdcscidIl2rgtm1/Bcgen (Beijing Biocytogen Co. Ltd.). Briefly, cultured CHO cells (ATCC, Manassas, VA) were washed in DPBS (ThermoFisher), counted, resuspended in cold DPBS and mixed with an appropriate volume of Matrigel ECM (Corning; final concentration 5 mg/mL) at a concentration of 1.5×10^6 cells/200 μl on ice.
Animals were prepared for injection using standard approved anesthesia with hair removal (Nair) prior to injection. 200 μl of the cell suspension in ECM was injected sc into the rear flanks of the mice. Once tumors were palpable, the tumors were measured using calipers 2 times/week. Tumor volume was calculated using the following equation: (longest diameter*shortest diameter^2)/2. […]

CHO-Target 1 cells = test: pH shift cytotoxicity assay / HCl switch RTCA killing assay (xCELLigence); format: cell-based; details: added about 3 hours after effector cells, E/T 1:1
Protocol: The cytotoxic activity of transduced T cells before and after pH change by addition of NaHCO3 or NaOH was measured using the xCELLigence System. Briefly, one day before the experiment, target cells (CHO cells stably transfected with a construct to express Target 1 on the cell surface (CHO-Target 1 cells)), were seeded into a 96-well E-plate (ACEA; San Diego, CA) at 10,000 cells/well with X-VIVO 15 media containing 40 mM HEPES and 40 mM PIPES, pH 6.7. Cryopreserved effector cells previously transduced with either lentiviral particles containing the nucleic acid encoding T1B or C1 (T1BVP and C1VP, respectively) produced as discussed above, were thawed and cultured for two days in X-VIVO 15 media containing 100 IU/mL of IL-2 (R&D Systems, Minneapolis, MN). On the day of the experiment, cells transduced with T1BVP or C1VP were washed and resuspended in X-VIVO 15 media containing 40 mM HEPES and 40 mM PIPES, pH 6.7 and then added into the experimental wells at effector cell/target cell ratios (E/T) of 1:1.
Impedance readings measured on the xCELLigence System (ACEA) were taken every 5 minutes and reported as the Cell Index (CI) to quantitate cell confluency as a measure of cell proliferation/cell lysis. Approximately 3 hours after effector cell addition, 8 μl of 7.5% NaHCO3 or 14 μl of 0.5 M NaOH was added into the wells with X-VIVO 15 media containing 40 mM HEPES and 40 mM PIPES, pH 6.7 to increase the pH from 6.7 to 7.4. Impedance readings were continued for approximately 20 hours after effector cell addition. Percentage of specific cytolysis was calculated as follows ((CI Target+C1VP transduced effector T cells)−(CI Target+T1BVP transduced effector T cells))/(CI Target+C1VP transduced effector T cells)×100.
The cytotoxic activity of transduced T cells before and after pH change by addition of HCl was measured using the xCELLigence System. Briefly, one day before the experiment, CHO-Target 1 cells were seeded into a 96 well E-plate at 10,000 cells/well with X-VIVO 15 media containing 40 mM HEPES and 40 mM PIPES, pH 7.4. Cryopreserved effector cells previously transduced with either C1VP or T1BVP, were thawed and cultured for two days in X-VIVO 15 media containing 100 IU/mL of IL-2. On the day of the experiment, cells transduced with T1BVP or C1VP were washed and resuspended in X-VIVO 15 media containing 40 mM HEPES and 40 mM PIPES, pH 7.4 and then added into experimental wells at effector cell/target cell ratios (E/T) of 1:1.
Impedance readings were taken every 5 minutes and reported as the Cell Index (CI). […] Impedance readings were continued for approximately 20 hours after effector cell addition. Percentage of specific cytolysis was calculated as follows ((CI Target+C1VP transduced effector T cells)−(CI Target+T1BVP transduced effector T cells))/(CI Target C1VP)×100.

CHO-Target 1 = test: xCELLigence cytotoxicity of MRB-CAR T cells at pH 6.7 vs pH 7.4, CHO-Target 1; format: cell-based; details: E/T 3:1, 1:1, 0.3:1; about 40 hours
Protocol: The cytotoxic activity of the candidate MRB-CARs against target cells expressing either Target 1 or Target 2 (CHO-Target 1 and CHO-Target 2, respectively) was analyzed at a pH of 7.4 (normal tissue) or a pH of 6.7 (reduced pH of a tumor microenvironment) by xCELLigence System (ACEA). Briefly, target cells expressing Target 1 or Target 2 were seeded to a 96-well E-plate at 20,000 cells/well with tumor conditional or normal medium one day before the experiment. Effector cells were rested for two days in human T cell medium containing 100 IU/mL of IL-2 and added into experimental wells containing Target cells at effector cell/target cell ratios (E/T) of 3:1, 1:1, and 0.3:1.
Impedance readings were taken every 5 minutes for approximately 40 hours after effector cell addition and impedance was reported as the Cell Index (CI). Percentage of specific cytolysis was calculated as follows ((CI Target+Control virus transduced effector T cells)−(CI Target+effector T cells transduced with CARs directed to Target 1 or Target 2))/(CI Target+Control virus transduced effector T cells)×100.

**Q.** For `O=C([O-])O.[Na+]` [sodium bicarbonate], which “color of phenol red indicator on excised tumor tissue” value [1] is on record?
**A.** from yellow/orange to red

**Q.** And the “rise of serum pH” value [2]?
**A.** approximately 0.1 pH unit

**Q.** And the “intratumoral cathepsin activity (RFU), surrogate of tumor microenvironment pH” value [3]?
**A.** decreased cathepsin activity

**Q.** What about the “effect on cytotoxic activity of MRB-CAR T cells of raising media pH from 6.7 to 7.4” value (CHO-Target 1 cells) of the same molecule?
**A.** inhibited the cytotoxic activity

B1: MRB-CAR T1A: anti-Target 1 microenvironment restricted CAR; VH SEQ ID NO:281, Linker 1, VL SEQ ID NO:282; CD28 stalk/TM, ICΔ, CD3Z (protein)
chain: EVQLVQSGAEVKKPGATVKISCKVSGYSFWGATMNWIRQPPGKGLEWIGLIKPSNGGTSYNQKFKGRVTISADKSISTAYLQWSSLKASDTAMYYCAHGHYESYEAMDYWGQGTLVTVSSGGGGSGGGGSGGGGSDIQMTQSPSSLSASVGDRVTITCKASQDVVSAVAWYQQKPGQAPRLLIYWQDTRHTGVPSRFSGSGSGTEFTLTISSLQPDDFATYYCQEHFSPPLTFGQGTKVEIKFWVLVVVGGVLACYSLLVTVAFIIFWVRSKRSRLLHSDYMNMTPRRPGPTRKHYQAYAAARDFAAYRSRVKFSRSADAPAYQQGQNQLYNELNLGRREEYDVLDKRRGRDPEMGGKPRRKNPQEGLYNELQKDKMAEAYSEIGMKGERRRGKGHDGLYQGLSTATKDTYDALHMQALPPR
notes: anti-Target 1 microenvironment restricted CAR; CD28 stalk/TM, ICΔ, CD3Z
**Q.** For B1, which “cytotoxic activity on target cells at pH 6.7 versus pH 7.4” value (CHO-Target 1) is on record?
**A.** more effective at lysing target cells at a pH of 6.7 than at a pH of 7.4
